Test results taken from patent US20200030355A1, “COMBINATION THERAPY FOR TREATING CANCER” (Epizyme, Inc., priority 2014, published 2020).

Key:
Assay type in all cases: cell-based, human
MOLM-13 (MLL-AF9) = assay: Combination proliferation study with Compound A2 (ATP/CellTiter-Glo, Chou-Talalay combination index); settings: for Combination with Compound A2, MOLM13 / Combination with Compound A2, MOLM-13 (MLL-AF9): 7 Day Cotreatment Model; for Combination with Compound A2, MOLM13: Table 5; for Combination with Compound A2, MOLM-13 (MLL-AF9): Table 4
Description: (§1) The acute myelogenous leukemia cell lines MV4-11 (MLL-AF4) and MOLM-13 (MLL-AF9) were obtained from American Type Culture Collection (ATCC; Rockville, Md.) and Deutsche Sammlung von Mikroorganismen and Zellkulturen (DSMZ; Braunschweig, Germany) respectively.
(§2) Studies were performed using MLL-rearranged cell lines in vitro to evaluate the anti-proliferative effect of a combination of two agents together on cell growth. Initial proliferation studies were performed to determine the IC50 of a given compound in each cell line. The cell counts were measured by ATP quantitation using the Promega Cell Titer Glo kit and luminescence values corresponded to the amount of ATP in a given well.
(§3) Compounds were evaluated for synergy in the co-treatment phase by testing the compounds in a concentration range which was bracketed around their IC50 values. The compounds were plated to a 96 well plate in a matrix format (FIG. 3) which includes increasing concentrations of each drug in the combination in a constant ratio, in addition to the effect of each compound alone in the study. Cells were seeded and grown in the log-linear phase for 3 or 7 days in the co-treatment phase. Minimum inhibition (DMSO alone) controls were used in each plate to calculate fraction affected (Fa) of a test well. DMSO concentration was kept at 0.1% v/v.
(§4) The drug combination analysis was performed utilizing the Chou-Talalay method Synergy was determined using the software package Calcusyn by Biosoft. The combination index (CI) is a quantitative term used to describe the level of synergy or antagonism in a given test system. A combination index less than one indicates synergy, and a CI greater than one indicates antagonism. Further, strong synergism is achieved when the CI value falls below 0.3.
(§5) Graphs representing values of combination index (CI) versus Fractional effect (Fa) known as Fa-CI plots were generated and synergy was evaluated. Drug synergy was statistically defined by CI values less than 1, antagonism by CI>1 and additive effect by CI equal to 1.
Graphs representing values of combination index (CI) versus Fractional effect (Fa) known as Fa-CI plots were generated and synergy was evaluated. Drug synergy was statistically defined by CI values less than 1, antagonism by CI>1 and additive effect by CI equal to 1. […]
Cell viability was measured via ATP content using CellTiter-Glo® (Promega).
as §2, with “Proliferation studies” for “Studies”, “MOLM-13, MV4-11 and SKM-1” for “MLL-rearranged”, “cancer cell killing” for “anti-proliferative”, “IC50 values” for “IC50”, “correspond” for “corresponded”, “well. […]” for “well.”
Compounds evaluated for synergy in the co-treatment phase were tested in a range which was bracketed around the IC50's.

MV4-11 (MLL-AF4) = assay: as above; settings: 7 Day Cotreatment Model; for Combination with Compound A2, MV4-11 (MLL-AF4): Table 4; for Combination with Compound A2, MV4-11: Table 5
Description: as §1, §2, §3, §4, §5, §5
The HP-D300 digital dispenser (Tecan) was used to dispense compounds in a combinatorial matrix. […] Cell viability was measured via ATP content using CellTiter-Glo® (Promega).
Viability was determined using CellTiter-Glo® (Promega).
as §2, with “Proliferation studies” for “Studies”, “MOLM-13, MV4-11 and SKM-1” for “MLL-rearranged”, “cancer cell killing” for “anti-proliferative”, “IC50 values” for “IC50”, “correspond” for “corresponded”
These studies were performed to evaluate both the combinatorial effect of compounds on cell killing and the durability of the effect by washing out one of the agents.
Compounds evaluated for synergy in the co-treatment phase were tested in a range which was bracketed around the IC50's. The compounds were plated to a 96 well plate in a matrix format which includes increasing concentrations of each drug in the combination in a constant ratio, in addition to the effect of each compound alone in the study.

MOLM-13 cells = assay: EPZ-5676 300 nM 7-day pre-treatment, then second compound 72 hours, ATPLite, IC50 shift (Example 6); settings: 300 nM EPZ-5676 or DMSO 7-day pre-treatment, then 2nd compound 72 hours, Synergy = IC50 of 2nd compound decreased by 2-fold or more vs DMSO control
Description: Cells were then equilibrated in incubators for 24 hours before treatment with a second compound. Treated assay plates were incubated with a second compound for 72 hours. After this time, plates were developed for endpoint analysis using ATPLite to measure ATP content, which is used as an indicator of cell viability.
“N/D” means that IC50 of the second compound could not be determined for both conditions.

Compound: C[C@@H]1COCCN1c1cc(C2(S(C)(=O)=O)CC2)nc(-c2cccc3[nH]ccc23)n1 [AZ20]
- Combination with Compound A2, MOLM13 (MOLM-13 (MLL-AF9)): Synergy (Drug synergy was statistically defined by CI values less than 1)

Compound: CN(Cc1cnc2nc(N)nc(N)c2n1)c1ccc(C(=O)N[C@@H](CCC(=O)O)C(=O)O)cc1 [Methotrexate]
- Combination with Compound A2, MOLM-13 (MLL-AF9) (MOLM-13 (MLL-AF9)): Additive (additive effect by CI equal to 1)
- Combination with Compound A2, MV4-11 (MLL-AF4) (MV4-11 (MLL-AF4)): Additive (additive effect by CI equal to 1)

Compound: Cc1[nH]c2ccccc2c1CCNCc1ccc(/C=C/C(=O)NO)cc1 [Panobinostat]
- Combination with Compound A2, MOLM-13 (MLL-AF9) (MOLM-13 (MLL-AF9)): Synergy (Drug synergy was statistically defined by CI values less than 1)
- Combination with Compound A2, MV4-11 (MLL-AF4) (MV4-11 (MLL-AF4)): Antagonistic (antagonism by CI>1)

Compound: Nc1cccc2c1CN(C1CCC(=O)NC1=O)C2=O (stereo not drawn) [Lenalidomide]
- Combination with Compound A2, MOLM-13 (MLL-AF9) (MOLM-13 (MLL-AF9)): Combination Benefit

Compound: S=c1nc[nH]c2nc[nH]c12 [Mercaptopurine]
- Combination with Compound A2, MOLM-13 (MLL-AF9) (MOLM-13 (MLL-AF9)): Additive --> Synergy
- Combination with Compound A2, MV4-11 (MLL-AF4) (MV4-11 (MLL-AF4)): Additive (additive effect by CI equal to 1)

Compound: C=CC(=O)N1CCC[C@@H](n2nc(-c3ccc(Oc4ccccc4)cc3)c3c(N)ncnc32)C1 [Ibrutinib]
- Combination with Compound A2, MV4-11 (MLL-AF4) (MV4-11 (MLL-AF4)): Synergy (Drug synergy was statistically defined by CI values less than 1)

Compound: Nc1nc(F)nc2c1ncn2[C@@H]1O[C@H](CO)[C@@H](O)[C@@H]1O [Fludarabine]
- Combination with Compound A2, MOLM-13 (MLL-AF9) (MOLM-13 (MLL-AF9)): Synergy (Drug synergy was statistically defined by CI values less than 1)

Compound: O=C(Nc1ccccc1-c1cn2c(CN3CCNCC3)csc2n1)c1cnc2ccccc2n1 [SRT-1720]
- Combination with Compound A2, MV4-11 (MLL-AF4) (MV4-11 (MLL-AF4)): Synergy (Drug synergy was statistically defined by CI values less than 1)
- MOLM-13 (summary of combination study: EPZ-5676 + 2nd compound) (MOLM-13 cells): Synergy (considered synergistic if the IC50 value of the second compound decreased by 2-fold or more when EPZ-5676 was added as compared to the DMSO control)

Compound: CC(C)C[C@H](NC(=O)[C@H](Cc1ccccc1)NC(=O)c1cnccn1)B(O)O [Velcade, bortezomib]
- Combination with Compound A2, MOLM-13 (MLL-AF9) (MOLM-13 (MLL-AF9)): Combination Benefit

Compound: CO[C@@H]1[C@H](N(C)C(=O)c2ccccc2)C[C@H]2O[C@]1(C)n1c3ccccc3c3c4c(c5c6ccccc6n2c5c31)C(=O)NC4 [Midostaurin]
- Combination with Compound A2, MV4-11 (MLL-AF4) (MV4-11 (MLL-AF4)): Synergy (Drug synergy was statistically defined by CI values less than 1)

Compound: COC1=CC(c2cc3ccccc3[nH]2)=N/C1=C\c1[nH]c(C)cc1C [Obatoclax]
- Combination with Compound A2, MOLM-13 (MLL-AF9) (MOLM-13 (MLL-AF9)): Additive (additive effect by CI equal to 1)

Compound: Cn1cncc1[C@@](N)(c1ccc(Cl)cc1)c1ccc2c(c1)c(-c1cccc(Cl)c1)cc(=O)n2C [Tipifarnib]
- Combination with Compound A2, MV4-11 (MV4-11 (MLL-AF4)): Synergy (Drug synergy was statistically defined by CI values less than 1)
- MOLM-13 (summary of combination study: EPZ-5676 + 2nd compound) (MOLM-13 cells): Synergy (considered synergistic if the IC50 value of the second compound decreased by 2-fold or more when EPZ-5676 was added as compared to the DMSO control)

Compound: Cn1c(=O)n(-c2ccc(C(C)(C)C#N)cc2)c2c3cc(-c4cnc5ccccc5c4)ccc3ncc21 [BEZ235]
- Combination with Compound A2, MOLM13 (MOLM-13 (MLL-AF9)): Additive (additive effect by CI equal to 1)

Compound: COc1cc([C@@H]2c3cc4c(cc3[C@@H](O[C@@H]3O[C@@H]5CO[C@@H](C)O[C@H]5[C@H](O)[C@H]3O)[C@H]3COC(=O)[C@H]23)OCO4)cc(OC)c1O [Etoposide]
- MOLM-13 (summary of combination study: EPZ-5676 + 2nd compound) (MOLM-13 cells): Synergy (considered synergistic if the IC50 value of the second compound decreased by 2-fold or more when EPZ-5676 was added as compared to the DMSO control)

Compound: O=C(Nc1ccncc1)c1cc([N+](=O)[O-])ccc1Cl [Compound T0070907]
- Combination with Compound A2, MOLM13 (MOLM-13 (MLL-AF9)): Additive (additive effect by CI equal to 1)
- Combination with EPZ-5676 (MOLM-13 (MLL-AF9); MOLM-13 cells, co-treatment model of Example 3): Synergy (Drug synergy was statistically defined by CI values less than 1)

Compound: Cc1cccc(CC(=O)N2CCc3c2ccc(-c2cn(C)c4ncnc(N)c24)c3F)n1 [GSK2656157]
- MOLM-13 (summary of combination study: EPZ-5676 + 2nd compound) (MOLM-13 cells): Synergy (considered synergistic if the IC50 value of the second compound decreased by 2-fold or more when EPZ-5676 was added as compared to the DMSO control)

Compound: CC(C)(C)c1nc(-c2cccc(NS(=O)(=O)c3c(F)cccc3F)c2F)c(-c2ccnc(N)n2)s1 [Dabrafenib]
- MOLM-13 (summary of combination study: EPZ-5676 + 2nd compound) (MOLM-13 cells): Synergy (considered synergistic if the IC50 value of the second compound decreased by 2-fold or more when EPZ-5676 was added as compared to the DMSO control)

Compound: CC[C@H](Nc1ncnc2[nH]cnc12)c1nc2cccc(F)c2c(=O)n1-c1ccccc1 [CAL-101]
- MOLM-13 (summary of combination study: EPZ-5676 + 2nd compound) (MOLM-13 cells): Synergy (considered synergistic if the IC50 value of the second compound decreased by 2-fold or more when EPZ-5676 was added as compared to the DMSO control)

Compound: CO[C@H]1C[C@@H]2CC[C@@H](C)[C@@](O)(O2)C(=O)C(=O)N2CCCC[C@H]2C(=O)O[C@H]([C@H](C)C[C@@H]2CC[C@@H](OCCO)[C@H](OC)C2)CC(=O)[C@H](C)/C=C(\C)[C@@H](O)[C@@H](OC)C(=O)[C@H](C)C[C@H](C)/C=C/C=C/C=C/1C [Everolimus]
- MOLM-13 (summary of combination study: EPZ-5676 + 2nd compound) (MOLM-13 cells): Synergy (considered synergistic if the IC50 value of the second compound decreased by 2-fold or more when EPZ-5676 was added as compared to the DMSO control)

Compound: CC[C@@H]1C(=O)N(C)c2cnc(Nc3ccc(C(=O)N[C@H]4CC[C@H](N5CCN(CC6CC6)CC5)CC4)cc3OC)nc2N1C(C)C [Volasertib]
- Combination with Compound A2, MV4-11 (MV4-11 (MLL-AF4)): Antagonstic

Compound: CC(=O)O/N=C1\C(=O)N(Cc2cc(Cl)ccc2Cl)c2ccc(Cl)cc21 [LDN 57444]
- MOLM-13 (summary of combination study: EPZ-5676 + 2nd compound) (MOLM-13 cells): Synergy (considered synergistic if the IC50 value of the second compound decreased by 2-fold or more when EPZ-5676 was added as compared to the DMSO control)

Compound: COc1ccc(C2=N[C@@H](c3ccc(Cl)cc3)[C@@H](c3ccc(Cl)cc3)N2C(=O)N2CCNC(=O)C2)c(OC(C)C)c1 [Nutlin-3]
- MOLM-13 (summary of combination study: EPZ-5676 + 2nd compound) (MOLM-13 cells): Synergy (considered synergistic if the IC50 value of the second compound decreased by 2-fold or more when EPZ-5676 was added as compared to the DMSO control)

Compound: c1ccc2c(CCNc3ccc(Nc4ccncc4)cc3)c[nH]c2c1 [JNJ 26854165]
- MOLM-13 (summary of combination study: EPZ-5676 + 2nd compound) (MOLM-13 cells): Synergy (considered synergistic if the IC50 value of the second compound decreased by 2-fold or more when EPZ-5676 was added as compared to the DMSO control)

Compound: c1ccc([C@@H]2C[C@H]2NC2CCNCC2)cc1 [GSK-LSD1]
- MOLM-13 (summary of combination study: EPZ-5676 + 2nd compound) (MOLM-13 cells): Synergy (considered synergistic if the IC50 value of the second compound decreased by 2-fold or more when EPZ-5676 was added as compared to the DMSO control)

Compound: Cc1coc2c1C(=O)C(=O)c1c-2ccc2c1CCCC2(C)C [TANSHINONE IIA]
- MOLM-13 (summary of combination study: EPZ-5676 + 2nd compound) (MOLM-13 cells): Synergy (considered synergistic if the IC50 value of the second compound decreased by 2-fold or more when EPZ-5676 was added as compared to the DMSO control)

Compound: O=c1cc(N2CCOCC2)oc2c(-c3cccc4c3sc3ccccc34)cccc12 [NU 7441]
- MOLM-13 (summary of combination study: EPZ-5676 + 2nd compound) (MOLM-13 cells): Synergy (considered synergistic if the IC50 value of the second compound decreased by 2-fold or more when EPZ-5676 was added as compared to the DMSO control)

Compound: Cc1cc(/N=N/c2ccc(S(=O)(=O)Nc3ccccn3)cc2)c(N)cc1O [MS 436]
- MOLM-13 (summary of combination study: EPZ-5676 + 2nd compound) (MOLM-13 cells): Synergy (considered synergistic if the IC50 value of the second compound decreased by 2-fold or more when EPZ-5676 was added as compared to the DMSO control)
